Reference: ChEMBL document CHEMBL1201862, “PubChem BioAssay data set” (2004)
Active and inactive are the calls of the source.

Legend:
[1] = molecular target: T1, COUP transcription factor 2 (Homo sapiens, UniProt P24468); test: Luminescence-based cell-based high throughput dose response assay to identify inhibitors of COUP-TFII (NR2F2).; assay type: functional;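 also: HEK293 cells transiently cotransfected with COUP-TFII expression vector and reporter; luciferase reporter luminescence driven by COUP-TFII from the pX2-168 reporter plasmid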
T1 sequence (P24468 whole entry): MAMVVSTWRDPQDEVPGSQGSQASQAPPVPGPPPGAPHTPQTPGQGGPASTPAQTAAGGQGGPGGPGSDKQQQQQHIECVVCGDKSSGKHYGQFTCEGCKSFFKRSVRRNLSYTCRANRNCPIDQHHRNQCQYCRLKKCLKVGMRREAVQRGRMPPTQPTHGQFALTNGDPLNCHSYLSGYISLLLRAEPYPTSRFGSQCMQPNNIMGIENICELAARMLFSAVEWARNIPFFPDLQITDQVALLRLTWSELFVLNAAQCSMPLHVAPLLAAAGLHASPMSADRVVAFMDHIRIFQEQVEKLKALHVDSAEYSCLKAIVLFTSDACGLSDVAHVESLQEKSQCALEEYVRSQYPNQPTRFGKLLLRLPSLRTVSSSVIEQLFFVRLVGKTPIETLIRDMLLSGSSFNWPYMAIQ

[2] = test system: INS1; test: beta cell apoptosis inhibitors, cytokine rescue, dose response, luminescence, retest (AID 449756); assay type: functional, cell-based; conditions: Rattus norvegicus;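 also: cell death triggered by IL-1 beta plus TNF-alpha plus IFN-gamma mixture; protective hits raise ATP signal compared with cytokine alone wells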
[3] = molecular target: Nucleotide-binding oligomerization domain-containing protein 2 (Homo sapiens, UniProt Q9HC29); test: NOD2 signaling inhibitors, cell-based, luminescence, uHTS, HEK293 (AID 1566); assay type: functional
Nucleotide-binding oligomerization domain-containing protein 2, sequence (Q9HC29 whole entry, the tested form may be a part): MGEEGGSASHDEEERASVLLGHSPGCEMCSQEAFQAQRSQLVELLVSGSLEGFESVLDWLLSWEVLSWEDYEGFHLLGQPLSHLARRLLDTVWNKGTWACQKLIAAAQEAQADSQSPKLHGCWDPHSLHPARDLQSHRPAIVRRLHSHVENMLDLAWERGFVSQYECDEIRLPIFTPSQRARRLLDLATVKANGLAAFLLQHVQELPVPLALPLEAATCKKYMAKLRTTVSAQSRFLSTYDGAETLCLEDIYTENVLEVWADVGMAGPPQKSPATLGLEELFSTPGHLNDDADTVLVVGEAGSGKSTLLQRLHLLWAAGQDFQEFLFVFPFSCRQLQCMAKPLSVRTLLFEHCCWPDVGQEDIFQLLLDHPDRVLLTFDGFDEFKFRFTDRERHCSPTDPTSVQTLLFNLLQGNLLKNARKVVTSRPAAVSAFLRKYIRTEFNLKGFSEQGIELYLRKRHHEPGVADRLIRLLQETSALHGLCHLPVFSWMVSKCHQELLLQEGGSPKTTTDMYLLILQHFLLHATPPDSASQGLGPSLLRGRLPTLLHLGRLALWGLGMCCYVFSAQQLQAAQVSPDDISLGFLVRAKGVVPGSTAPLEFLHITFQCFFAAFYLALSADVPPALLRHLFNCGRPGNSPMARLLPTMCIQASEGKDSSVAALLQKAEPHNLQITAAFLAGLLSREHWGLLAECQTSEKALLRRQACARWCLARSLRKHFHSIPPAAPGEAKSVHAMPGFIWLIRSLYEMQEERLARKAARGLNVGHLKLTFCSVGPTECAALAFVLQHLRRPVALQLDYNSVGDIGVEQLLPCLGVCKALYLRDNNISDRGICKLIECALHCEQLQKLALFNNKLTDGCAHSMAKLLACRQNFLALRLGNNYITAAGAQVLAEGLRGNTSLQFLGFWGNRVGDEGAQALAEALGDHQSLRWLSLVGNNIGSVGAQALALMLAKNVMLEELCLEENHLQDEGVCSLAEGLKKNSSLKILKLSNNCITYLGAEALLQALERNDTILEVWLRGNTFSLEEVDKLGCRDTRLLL

[4] = test system: HEK293; test: cells; assay type: functional, cell-based; conditions: Homo sapiens
[5] = test system: HEK293; test: cells; assay type: functional, cell-based; conditions: Homo sapiens; remark: listed apart in the source
[6] = reduction of Shn3 3'UTR firefly luciferase signal, dose response, Schnurri-3 inhibitor project, cell-based, Clone20 osteoblasts, cherry-pick, set 2 (AID 720490); assay type: functional;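 also: actives lower the luminescence signal as inhibitors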
[7] = test system: HEK293; test: NOD2 signaling inhibitors in MDP-stimulated cells, cell-based, uHTS, luminescence (AID 2001); assay type: functional; conditions: Homo sapiens
[8] = test system: HEK293; test: cells; assay type: functional, cell-based; conditions: Homo sapiens; remark: listed apart in the source
[9] = Shn3 3'UTR reporter inhibitors, dose response, cell-based, Clone20 osteoblasts, firefly luciferase, cherry-picked (AID 624132); assay type: functional;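 also: firefly luciferase luminescence from reporter carrying the Shn3 3'UTR in osteoblasts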
[10] = test system: HEK293; test: NOD1 signaling inhibitors, primary screen, cell-based, luminescence, uHTS (AID 1578); assay type: functional; conditions: Homo sapiens
[11] = HepG2 cell cytotoxicity, dose response, cytotoxicity control for Shn3 inhibitor project, CellTiter-Glo, cherry-picked (AID 624134); assay type: functional, cell-based
[12] = molecular target: T2, Heat shock factor protein 1 (Mus musculus, UniProt P38532); test: inhibition of MG132-induced HSE-luciferase signal, confirmation, cell-based, NIH3T3, luminescence, dose retest (AID 2382); assay type: functional;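 also: NIH3T3 fibroblasts with HSF1-driven luciferase reporter stressed by proteasome inhibitor MG132; luminescence from HSF1-driven luciferase expression after 8 hours of MG132 stress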
T2 sequence (P38532 whole entry): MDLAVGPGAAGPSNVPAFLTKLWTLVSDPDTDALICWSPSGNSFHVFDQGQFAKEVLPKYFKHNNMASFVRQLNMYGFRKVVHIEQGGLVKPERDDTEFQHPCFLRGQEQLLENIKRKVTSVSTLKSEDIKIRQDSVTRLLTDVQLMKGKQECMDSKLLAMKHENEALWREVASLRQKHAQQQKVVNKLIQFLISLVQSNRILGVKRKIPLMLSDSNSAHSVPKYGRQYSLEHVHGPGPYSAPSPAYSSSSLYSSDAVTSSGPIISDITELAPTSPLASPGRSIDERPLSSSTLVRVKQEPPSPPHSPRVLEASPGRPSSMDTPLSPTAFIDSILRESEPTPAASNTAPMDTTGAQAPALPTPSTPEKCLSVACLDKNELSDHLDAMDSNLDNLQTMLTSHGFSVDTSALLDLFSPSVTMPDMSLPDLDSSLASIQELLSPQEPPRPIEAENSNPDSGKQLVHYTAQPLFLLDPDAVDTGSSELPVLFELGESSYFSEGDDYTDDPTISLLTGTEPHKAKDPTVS

[13] = HepG2 cell cytotoxicity, dose response, cytotoxicity control, plate reader, cherry-pick, antagonist series (AID 743416); assay type: functional, cell-based
[14] = LGR2 antagonists, dose response, cell-based, HEK293, CRE-luciferase reporter, cherry pick, set 2 (AID 743343); assay type: functional;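 also: transfected cells were stimulated with diluted bursicon conditioned medium after compound addition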
[15] = molecular target: T3, Microphthalmia-associated transcription factor (Homo sapiens, UniProt O75030); test: TRPM1 promoter luciferase signal decrease, dose response, MITF inhibitor project, cell-based, SK-MEL-5, cherry-picked, set 3 (AID 493073); assay type: functional
T3 sequence (O75030 whole entry): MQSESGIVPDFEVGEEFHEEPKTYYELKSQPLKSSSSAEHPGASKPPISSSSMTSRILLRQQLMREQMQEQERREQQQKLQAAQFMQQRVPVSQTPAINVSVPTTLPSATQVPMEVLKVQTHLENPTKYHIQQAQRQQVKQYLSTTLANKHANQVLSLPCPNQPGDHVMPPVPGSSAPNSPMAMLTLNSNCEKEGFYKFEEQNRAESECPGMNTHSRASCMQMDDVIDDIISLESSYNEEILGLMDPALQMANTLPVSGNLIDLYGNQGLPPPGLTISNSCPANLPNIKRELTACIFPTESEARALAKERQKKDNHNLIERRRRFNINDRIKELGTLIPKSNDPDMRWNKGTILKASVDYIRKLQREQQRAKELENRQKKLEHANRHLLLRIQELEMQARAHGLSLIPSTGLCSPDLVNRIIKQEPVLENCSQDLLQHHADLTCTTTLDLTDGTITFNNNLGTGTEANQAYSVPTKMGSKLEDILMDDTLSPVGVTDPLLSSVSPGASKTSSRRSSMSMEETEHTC

[16] = molecular target: Photoreceptor-specific nuclear receptor (Homo sapiens, UniProt Q9Y5X4); assay type: functional, cell-based;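 also: CHO-S cells with Gal4-NCOR and VP16-NR2E3 two-hybrid luciferase reporter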
Photoreceptor-specific nuclear receptor, sequence (Q9Y5X4 whole entry, the tested form may be a part): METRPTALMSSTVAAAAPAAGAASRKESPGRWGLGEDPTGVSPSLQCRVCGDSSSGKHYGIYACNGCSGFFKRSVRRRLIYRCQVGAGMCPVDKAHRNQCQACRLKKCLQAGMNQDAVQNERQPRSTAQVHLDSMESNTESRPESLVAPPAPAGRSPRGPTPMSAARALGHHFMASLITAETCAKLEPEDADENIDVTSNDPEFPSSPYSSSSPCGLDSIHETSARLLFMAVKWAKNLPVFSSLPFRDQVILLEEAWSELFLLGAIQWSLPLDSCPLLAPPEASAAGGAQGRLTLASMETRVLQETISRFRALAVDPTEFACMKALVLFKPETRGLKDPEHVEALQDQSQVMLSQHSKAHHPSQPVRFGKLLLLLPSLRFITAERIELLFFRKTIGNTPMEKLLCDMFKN

[17] = A549 cell cytotoxicity, dose response, cytotoxicity control, plate reader, cherry-pick, antagonist series (AID 743412); assay type: functional, cell-based
[18] = MC4R antagonists, dose response, counter-screen for LGR2 antagonist project, cell-based, plate reader, cherry pick (AID 743444); assay type: functional;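 also: transfected HEK 293 cells stimulated with alpha-MSH peptide; potency of inhibitors of the alpha-MSH evoked signal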
[19] = HEK293 cell cytotoxicity, dose response, cytotoxicity control, plate reader, cherry-picked samples (AID 743446); assay type: functional, cell-based

| SMILES | IC50 [1] | AC50 [2] | EC50 [3] | IC50 [4] | IC50 [5] | AC50 [6] | IC50 [7] | IC50 [8] | AC50 [9] | EC50 [10] | AC50 [11] | EC50 [12] | AC50 [13] | AC50 [14] | AC50 [15] | IC50 [16] | AC50 [17] | AC50 [18] | AC50 [19] |
| --- | --- | --- | --- | --- | --- | --- | --- | --- | --- | --- | --- | --- | --- | --- | --- | --- | --- | --- | --- |
| Cc1cc(S(=O)(=O)NCc2ccncc2)c(C)cc1Br | 6.41 µM (active) | 4.42 µM (active) | 5.82 µM (active) | > 20 µM (inactive) | > 20 µM (inactive) | 1.02 µM (active) | 17.9 µM (inactive) | 9.24 µM (active) | 1.23 µM (active) | 4.2 µM (active) | 41.1 µM (active) |  |  |  |  |  |  |  |  |
| Cc1cc(C)c(C#N)c(SCc2nnc(-c3ccccc3)o2)n1 |  |  | < 0.31 µM (inactive) | > 20 µM (inactive) | > 20 µM (inactive) |  | 12.6 µM (inactive) | 6.41 µM (active) |  | 10.5 µM (active) |  | < 0.16 µM (active) | > 52 µM (inactive) | 0.281 µM (active) | 0.024 µM (active) | 35.7 µM (inactive) | > 52 µM (inactive) | 0.321 µM (active) | > 52 µM (inactive) |
